Legend:
P1-TP73 promoter = experiment: P1-p73-Fluc-DsRed reporter screening of natural compounds in U373 cells; format: cell-based, human; details: U373, 8 µg/ml, 48 h after treatment
Description: The conventional GB cell line U373 was used to perform a low-throughput chemical screen to identify P1-TP73-promoter regulators from a panel of 51 natural compounds with novel chemical structures (BMT-1 to BMT-51). Cells were seeded on black microplates and 24 h later they were transfected with 1 µg of P1-p73-Fluc-DsRed plasmid using Lipofectamine 3000™ reagent (ThermoFisher) following the manufacturer's instructions. Six hours later, transfected cells were treated either with 8 µg/ml of any of the tested compounds or with the drugs used as first line glioblastoma treatment: the methylating agent temozolomide (TMZ) and the chloroethyl-derivative of nitrosourea carmustine (BCNU), or equivalent volumes of DMSO. […] The compound BMT18 was also found to have autofluorescence.

[1] = test system: p73 transcripts originated from the P1 promoter (TAp73, ΔEx2p73, ΔEx2/3p73); experiment: qRT-PCR of p73 transcripts from the P1 promoter in U373 cells; format: cell-based, human; details: U373, same conditions as screening, 18S control
Description: Expression levels of TAp73 (Figure 2C), ΔEx2p73 (Figure 2D) and ΔEx2/3p73 (Figure 2E) were determined by qRT-qPCR using 18S ribosomal RNA as housekeeping control, and all the expression values were normalized to TAp73 expression in non-treated cells (NT). […] The amino-truncated isoforms that are tumor-specific are vigorously expressed in advanced stages across a variety of highly aggressive human cancers (Knoll et al., 2011; Steder et al., 2013; George et al., 2015; Meier et al., 2016) and promote tumor initiation (Tannapfel et al., 2008) and cancer progression (Engelmann et al., 2015). Moreover, there is a somatic genomic rearrangement of TP73 that generates an oncogenic Ex2/3p73 in small cell lung cancer (George et al., 2015). BMT9 represses the activity of the P1-TP73 promoter, therefore it would be expected to downregulate the expression of any of the isoforms generated from this promoter in a given cell.

U373 = experiment: MTT-based cytotoxicity assay, U373; format: cell-based; details: Homo sapiens, U373 MG, 72 h
Description: A dose-response analysis of BMT9 (concentrations ranging from 4.5 µM-18 µM), BCNU (from 150 µM-500 µM) and TMZ (350 µM-700 µM) was performed in two conventional glioblastoma cell lines (T98G, U373) and the GNS cell line G144 by MTT-based cytotoxicity assays (Figure 5A-D). Cells were seeded on p96-well plates and treated with the different compounds for 72 h. Then, the MTT reagent (3-(4,5-Dimethyl-2-thiazolyl)-2,5-diphenyl-2H-tetrazolium bromide diluted in PBS to a concentration of 1mg/ml), was added to each well to a final concentration of 0.33mg/ml, and incubated for 3 h at 37°C. After that, the media was removed, and formazan crystals were solubilized with DMSO. Absorbance was measured at 560 nm using a "Synergy HT" plate reader (Biotek). In the graphs, the Y axis represents the percentage of cell viability relative to non-treated cells. The IC50, when reached are marked by a rectangle. DMSO treatment had no effect on cell viability.

G179 = experiment: MTT-based cytotoxicity assay, G179; format: cell-based; details: G179, 72 h after treatment
CD133 = CD133 stemness marker flow cytometry in G144 cells; format: cell-based, human; details: G144, 48 hours; BMT9 4.5-9 µM, TMZ 500 µM, BCNU 250 µM
Description: Next, we asked if BMT9 treatment at IC50 could specifically affect the stemness of GNSC. To address this point, cells were seeded and treated 24 h later with BMT9 (4.5-9 µM), TMZ (500 µM) or BCNU (250 µM). After 48 hours of treatment, cells were collected and stained with a CD133 (stemness marker) antibody (AC133, Milyenty Biotec) or the corresponding Ig-isotype control. Flow cytometric analysis were performed with the previously mentioned equipment.

[2] = test system: invasiveness-related genes; experiment: qRT-PCR of invasiveness-related genes in G144 cells; format: cell-based, human; details: G144, 4.5 µM, 72 h
Description: For expression analysis, G144 cells were treated with BMT9 (4.5 µM) and after 72 h mRNA was extracted and qRT-PCR was performed.

G144 cells = experiment: 3D spheroid cell-invasion assay in Matrigel, G144; format: cell-based, human; details: 24 h
Description: A hallmark of glioblastoma cell infiltration through a 3D environment is the extension of long, thin polarized membrane extensions that explore and penetrate the surrounding environment. The 3D spheroid cell-invasion model consists in generating cell spheroids by suspension culture that are subsequently embedded in a 3D matrix. G144 cells were seeded on non-adherent conditions (without laminin coating) at a cell concentration of 40,000 cells/ml. After 8 days, spheres were embedded in a 2:1 mixture of Matrigel and growth media. Matrigel mix was let to polymerize at 37°C for 30 minutes, and then it was covered with growth media. Migration was monitored by phase-contrast microscopy for 24 h and the area of each sphere at the initial and final time points was measured using the ImageJ software, in order to calculate the ratio between both areas (Figure 10D, Y axis).

[3] = Maximum Tolerated Dose after intraperitoneal administration; details: mouse, in vivo, ip; female C57BL/6 mice, single intraperitoneal dose, seven days
Description: The Maximum Tolerated Dose (MTD) and Pharmacokinetics (PK) of BMT9 were determined after intraperitoneal administration to female C57BL/6 (~25 g) mice.
C57BL/6 female mice (9-13 weeks in age) were administered intraperitoneally with a single dose of BMT9 at 35, 50, 75, 100 or 200 mg/Kg. Total of 3 animals were used for each independent serial sampling experiment. The compound was dissolved in an appropriate vehicle (Cremophor:EtOH:H20 1:1:8). Body weight, distress and survival were monitored 1, 2, 4 hours and 8 hours post-administration and every day during the whole observation period. The MTD was set on the dose below the first dose that caused severe loss of body weight (>20%) or death of one or more animals of a dose group seven days after treatment. The MTD of BMT9 was therefore set on about 140 mg/kg. The concentrations of BMT9 in plasma was determined at different times per duplicate using a previously validated analytical method. The compound was injected via i.p at 100 mg/kg. Total of 3 animals were used for each independent serial sampling experiment. Blood samples were collected at 5, 15, 30 min, 1, 4, 10, 24, and 48 hours from each animal via cardiac puncture; […] withdrawn at each time point. 25 microliters of blood sample were then used for quantitative bioanalysis by HPLC-MS/MS. […]

## C=C1C2CCC(C)(C3COc4c(C)c(OC)c5c(c4C3O)C(O)OC5=O)C1CCC2(C)C (stereo not shown) [BMT9]
P1-TP73 promoter
  P1-TP73-promoter activity (fluorescence normalized to DMSO exposed cells): strongest and most reproducible repressive effect
P1-TP73 promoter; direction per compound not given
  pre-selection: modulatory effect of a 2-fold fluorescence increase or a 0.5-fold reduction: pre-selected
[1]
  expression levels of TAp73, ΔEx2p73 and ΔEx2/3p73: reduced them all
U373
  IC50: 18 µM
G179
  concentration as low as which still reduced viability: 6.75 µM
CD133
  CD133 expression levels (Mean Fluorescence Intensity): significantly reduced
  percentage of CD133 positive cells: significantly reduced
[2]
  expression of a set of invasiveness-related genes: downregulation of all the analyzed genes
G144 cells
  invasion of cells within the matrix surrounding the spheres: significantly impaired the invasion of cells
[3]
  MTD at 168 h: ~140 mg/kg
